Experiment: logP determination by HPLC on a reversed-phase column (C 18), EEC Directive 79/831 Annex V.A8
Type: physicochemical
Method: The stated logP values were determined in accordance with EEC Directive 79/831 Annex V.A8 by HPLC (high performance liquid chromatography) on a reversed-phase column (C 18). Temperature: 43° C.

[1] = method marker [b], isomer A / isomer B / isomer mixture as noted in the cell
[2] = method marker [a] (footnote not shown), isomer A / isomer B / isomer mixture as noted in the cell

SMILES: CC(=NOCC(C)CON=C(C)c1cc(Cl)cc(C)n1)c1cccc(C)n1 (stereo not drawn) [compound 877]
- logP (value marked [a]): 6.58^[a]
- logP (value marked [b]): 6.58^[b]
- logP (value marked [c]): 7.36^[c]

SMILES: CC(=NOCCC(C)CCON=C(C)c1ccc(C(F)(F)F)cn1)c1ccc(C(F)(F)F)cn1 (stereo not drawn) [compound 832]
- logP (value marked [a]): 7.36^[a]

SMILES: COC(CON=C(C)c1cc(C)cc(C)n1)CON=C(C)c1cc(C)cc(C)n1 (stereo not drawn) [Compound 552]
- logP (method marked [b] in Table 1): 1.56^[b]
- logP (method marked [c] in Table 1): 4.91^[c]

SMILES: CC(=NOCC(CON=C(C)c1cccc(C)n1)Cc1ccccc1)c1cccc(C)n1 (stereo not drawn) [Compound 583]
- logP (method marked [b] in Table 1): 5.37^b]
- logP (method marked [c] in Table 1): 6.34^[c]

SMILES: COc1cccc(C(C)=NOCCCCON=C(C)c2cccc(C)n2)c1 [compound 443]
- logP (value marked [b]): 4.57^[b]

SMILES: C=C(CON=Cc1cc(C(F)(F)F)cc(C)n1)CON=C(C)c1cccc(C)n1 (mixture of isomers) [Compound 671]
- logP (method marked [b] in Table 1): 4.61^[b]

SMILES: CC(=NOC[Si](C)(CON=C(C)c1cccc(C)n1)C(C)C)c1cccc(C)n1 [Compound 834]
- logP (value marked [a]): 6.72^[a]
- logP (value marked [b]): 6.72^[b]
- logP (value marked [c]): 7.35^[c]

SMILES: CC(=NOCC(C)CON=C(C)c1cccc(CC(C)C)n1)c1cccc(C)n1 (stereo not drawn) [Compound 423]
- logP (value marked [b]): 6.51^[b]

SMILES: COc1ccc(C(C)=NOCCCCON=C(C)c2cccc(C)n2)cc1OC [compound 380]
- logP (value marked [b]): 3.85^[b]

SMILES: Cc1nc(/C(N)=N/OC/C=C/CO/N=C(\N)c2nc(C)c3c(n2)CCCC3)nc2c1CCCC2 [compound 721]
- logP (method marked [b] in Table 1): 2.51^[b]

SMILES: CC(=NOCCCCCCON=C(C)c1cccc(Cc2ccccc2)n1)c1cccc(C)n1 [compound 340]
- logP (value marked [b]): 6.86^[b]

SMILES: CCC(=NOCCCON=C(C)c1cccc(C)n1)c1ncccc1C [compound 156]
- logP [1]: 3.28^[b]

SMILES: CCC(=NOCCCCCCON=C(C)c1cccc(C)n1)c1cccc(C)n1 [Compound 346]
- logP (value marked [b]): 5.59^[b]

SMILES: C=C(CON=C(CC)c1cccc(CC)n1)CON=C(CC)c1cccc(CC)n1 [Compound 265]
- logP (value marked [b]): 7.08^[b]

SMILES: CC(=NOCC1(CON=C(C)c2cc(C)cc(C)n2)CCCC1)c1cc(C)cc(C)n1 [Compound 589]
- logP (method marked [b] in Table 1): 3.35^[b]
- logP (method marked [c] in Table 1): 7.36^[c]

SMILES: CC(=NOC/C=C/CON=C(C)c1cccc(C)n1)c1cccc(C)n1 [Compound 777]
- logP (value marked [b]): 2.89^[b]

SMILES: CC(=NOCC(C)CON=C(C)c1ccc(C)c(C)n1)c1ccc(C)c(C)n1 (stereo not drawn) [Compound 118]
- logP [2]: 2.99^[a]

SMILES: CC(=NOCCCCCCON=C(C)c1cccc(C)n1)c1cc(C)ccn1 [compound 386]
- logP (value marked [b]): 3.94^[b]

SMILES: CC(=NOCC(C)(C)CON=C(C)c1cccc(C)n1)c1cccnc1 [compound 418]
- logP (value marked [b]): 2.80^[b]

SMILES: CCC(=NOCC1(CON=C(CC)c2cccc(C)n2)CC(C)=NO1)c1cccc(C)n1 (stereo not drawn) [compound 605]
- logP (method marked [b] in Table 1): 3.42^[b]

SMILES: CCC1=NOC(CON=C(c2cccc(C)n2)C(C)C)(CON=C(c2cccc(C)n2)C(C)C)C1 (stereo not drawn) [compound 595]
- logP (method marked [a] in Table 1): 4.79^[a]

SMILES: Cc1cccc(C(=NOCC2(CON=C(c3cccc(C)n3)C3CC3)CC(CC(C)C)=NO2)C2CC2)n1 (stereo not drawn) [compound 653]
- logP (method marked [a] in Table 1): 3.99^[a]

SMILES: CC(=NOCCCON=C(C)c1cccc(C)n1)c1cccc(C)n1 [Compound 14]
- logP [2]: 2.66^[a]

SMILES: CC(=NOCC(C)CON=C(C)c1cc(C)n(C)n1)c1cc(C)n(C)n1 (mixture of isomers) [compound 261]
- logP (value marked [a]): 3.09^[a]

SMILES: C=Cc1cccc(C(C)=NOCC(C)CON=C(C)c2cccc(C=C)n2)n1 (stereo not drawn) [compound 685]
- logP (method marked [b] in Table 1): 6.6^[b]

SMILES: CC(=NOCC(C)CON=C(C)c1nc(C)cc(C(F)(F)F)n1)c1nc(C)cc(C(F)(F)F)n1 (stereo not drawn) [compound 273]
- logP (value marked [b]): 4.86^[b]

SMILES: CC(=NOCC(C)(C)CON=C(c1ncccc1C)C(C)C)c1cccc(C)n1 [compound 368]
- logP (value marked [b]): 4.56^[b]

SMILES: CCC(=NOCCCCON=C(C)c1cccc(C)n1)c1ncccc1C (single isomer, unassigned) [compound 328]
- logP (value marked [b]): 3.65^[b] (isomer B)

SMILES: CC(=NOCc1cccc(CON=C(C)c2ccccn2)c1)c1ccccn1 [compound 731]
- logP (method marked [b] in Table 1): 3.72^[b]

SMILES: C=C(CON=C(C)c1cccc(C)n1)CON=C(N)c1cc(C(F)(F)F)cc(C)n1 [compound 210]
- logP [1]: 4.37^[b]

SMILES: CC(=NOCC(C)CON=C(C)c1cc(CO)cc(C)n1)c1cc(CO)cc(C)n1 (stereo not drawn) [compound 868]
- logP (value marked [b]): 1.31^[b]
- logP (value marked [c]): 2.67^[c]

SMILES: COc1cccc(C(C)=NOCC(=O)CON=C(C)c2cccc(OC)n2)n1 [compound 247]
- logP [1]: 4.61^[b]

SMILES: C=C(CO/N=C(\N)c1csc(C)n1)CO/N=C(\N)c1csc(C)n1 [Compound 27]
- logP [1]: 3.19^[b]

SMILES: CC(=NOCC(C)CON=C(C)c1ccc2ccc(C)cc2n1)c1ccc2ccc(C)cc2n1 (stereo not drawn) [compound 748]
- logP (method marked [b] in Table 1): 7.36^[b]
- logP (method marked [c] in Table 1): 7.36^[c]

SMILES: Cc1nc(/C(N)=N/OCc2ccccc2CO/N=C(\N)c2nc(C)c3c(n2)CCCC3)nc2c1CCCC2 [compound 707]
- logP (method marked [b] in Table 1): 3.25^[b]

SMILES: CC(=NOC[Si](C)(CON=C(C)c1ccc(C)c(C)n1)C(C)C)c1ccc(C)c(C)n1 [Compound 837]
- logP (value marked [a]): 6.76^[a]
- logP (value marked [b]): 6.76^[b]
- logP (value marked [c]): 7.36^[c]

SMILES: CC(=NOCCCCON=C(C)c1cccc(C)n1)c1ccc2ccccc2c1 [compound 445]
- logP (value marked [a]): 5.72^[a]

SMILES: CC(=NOCCON=C(C)c1ccccn1)c1ccccn1 [compound 30]
- logP [1]: 2.21^[b]

SMILES: Cc1cccc(C(=NOCCCON=C(c2ccccc2)c2cccc(C)n2)c2ccccc2)n1 (mixture of isomers) [compound 656]
- logP (method marked [a] in Table 1): 3.68^[a]

SMILES: CC(=NOCCCCCCON=C(C)c1nccc(C)n1)c1cccc(C)n1 [Compound 509]
- logP (value marked [b]): 3.39^[b]

SMILES: CC(=NOCCCCON=C(C)c1cccc(C)n1)c1cncc(C)c1 [compound 337]
- logP (value marked [b]): 2.20^[b]

SMILES: CC(=NOCc1ccc(CON=C(C)c2ccccn2)cc1)c1ccccn1 [compound 734]
- logP (method marked [b] in Table 1): 3.76^[b]

SMILES: CC(=NOCC(CON=C(C)c1cc(C)cc(C)n1)C(C)(C)C)c1cc(C)cc(C)n1 (stereo not drawn) [Compound 559]
- logP (method marked [b] in Table 1): 3.60^[b]
- logP (method marked [c] in Table 1): 7.36^[c]

SMILES: CC(=NOCC(C)CON=C(c1cccc(C)n1)C1CC1)c1cccc(C)n1 (stereo not drawn) [Compound 429]
- logP (value marked [b]): 3.61^[b]

SMILES: Cc1cccc(C=NOCCCCON=Cc2cccc(C)n2)n1 [compound 776]
- logP (value marked [b]): 2.16^[b]

SMILES: CC(=NOCC(C)(C)CON=C(C)c1cccc(-c2ccc(C(C)(C)C)cc2)n1)c1cccc(-c2ccc(C(C)(C)C)cc2)n1 [compound 580]
- logP (method marked [a] in Table 1): 7.36^[a]

SMILES: Cc1nc(/C(N)=N/OCc2ccccc2CO/N=C(\N)c2nc(C)c(Cl)c(C)n2)nc(C)c1Cl [compound 709]
- logP (method marked [b] in Table 1): 3.41^[b]

SMILES: CC(=NOCc1ccccc1CON=C(C)c1cccc(C)n1)c1cccc(C)n1 [compound 703]
- logP (method marked [b] in Table 1): 4.26^[b]

SMILES: C=C(CON=C(c1cccc(C)n1)C(C)C)CON=C(c1cccc(C)n1)C(C)C (single isomer, unassigned) [compound 275]
- logP (value marked [a]): 4.90^[a] (isomer A)

SMILES: C/C(=N\OCC(C)CON)c1cc(C)cc(C)n1 (racemic) [XII-9]
- logP ([a] acidic range, pH 2.3, 0.1% aqueous phosphoric acid and acetonitrile): 0.49^[a]
- logP ([b] LC-MS, acidic range, pH 2.7, 0.1% aqueous formic acid and acetonitrile): 0.49^[b]

SMILES: CCCc1nc(C(C)=NOCC(C)CON=C(C)c2ccc(C)c(CCC)n2)ccc1C (stereo not drawn) [Compound 550]
- logP (method marked [c] in Table 1): 7.36^[c]

SMILES: C=C(CON=C(C)c1cccc(C)n1)CON=C(N)c1nc(C)cs1 [compound 193]
- logP [1]: 2.70^b]

SMILES: CCCC(=NOCC(C)CON=C(CCC)c1ncccc1C)c1ncccc1C (mixture of isomers) [compound 111]
- logP [2]: 4.73^[a]

SMILES: CC(=NOCC(C)(C)CON=C(C)c1ccc(C)c(C)n1)c1cccc(C)n1 [Compound 799]
- logP (value marked [a]): 4.96^[a]
- logP (value marked [b]): 4.96^[b]
- logP (value marked [c]): 6.34^[c]

SMILES: C=C(CON=C(C)c1cccc(C)n1)CON=C(C)c1ncccc1Cl (single isomer, unassigned) [compound 139]
- logP [1]: 3.39^[b] (isomer B)

SMILES: CCC(=NOCC(C)CON=C(CC)c1cccc(CC)n1)c1cccc(CC)n1 (mixture of isomers) [compound 263]
- logP (value marked [b]): 6.33^[b]

SMILES: C=C(CON=C(C)c1cccc(C)c1)CON=C(C)c1cccc(C)n1 [compound 205]
- logP [1]: 5.03^[b]

SMILES: C=C(CON=C(C)c1ccc(C)nc1)CON=C(C)c1cccc(C)n1 (single isomer, unassigned) [compound 200]
- logP [1]: 1.92^[b] (isomer A)

SMILES: CC(=NOCC(C)(C)CON=C(C)c1cccc(C)n1)c1cc(C)ccn1 [compound 409]
- logP (value marked [b]): 3.65^[b]

SMILES: C=C(CON=C(C)c1ccc(C(F)(F)F)cn1)CON=C(C)c1ccc(C(F)(F)F)cn1 [Compound 61]
- logP [1]: 6.18^[b]

SMILES: C=C(CON=C(C)c1nc(C)cc(C)n1)CON=C(C)c1nc(C)cc(C)n1 [compound 146]
- logP [1]: 2.91^[b]

SMILES: CCCC(=NOCCCCON=C(CCC)c1cccc(C)n1)c1cccc(C)n1 [compound 227]
- logP [2]: 6.26^[a]

SMILES: CC(=NOCc1ccc(CON=C(C)c2nc(C)c(C)s2)cc1)c1nc(C)c(C)s1 [compound 736]
- logP (method marked [b] in Table 1): 5.84^[b]

SMILES: Cc1cccc(C=NOCCCON=Cc2cccc(C)n2)n1 [Compound 669]
- logP (method marked [b] in Table 1): 2.54^[b]

SMILES: C=C(CON=C(C)c1cccc(C)n1)CON=C(C)c1nc(C)cc(C)n1 [Compound 188]
- logP [1]: 2.69^[b]

SMILES: CC(=NOCC(CON=C(C)c1ccc(C)c(C)n1)C(C)(C)C)c1ccc(C)c(C)n1 (stereo not drawn) [Compound 317]
- logP (value marked [b]): 4.91^[b]
- logP (value marked [c]): 7.36^[c]

SMILES: Cc1cccc(C(=NOCC(C)CON=C(c2cccc(C)n2)C2CC2)C2CC2)n1 (single isomer, unassigned) [compound 162]
- logP [2]: 3.28^[a] (isomer A)

SMILES: CC(=NOCC1(CON=C(C)c2nc(C)ccc2C)CC1)c1nc(C)ccc1C (single isomer, unassigned) [compound 765]
- logP (value marked [b]): 3.15^[b]
- logP (value marked [c]): 4.95^[c]

SMILES: C=C(CON=C(C)c1ccc(C)cn1)CON=C(C)c1ccc(C)cn1 [compound 152]
- logP [1]: 3.36^[b]

SMILES: CC(=NOCCCCCCON=C(c1ccccc1)c1ncccc1C)c1cccc(C)n1 [compound 341]
- logP (value marked [b]): 4.98^b]

Reference: patent US20100022559A1, “BISOXIMES AS FUNGICIDES” (BAYER CROPSCIENCE AG, priority 2006, published 2010)
